# pIC50: −log10 of the molar value.
# Target: T1, human FXRalpha ligand binding domain (LBD) (Homo sapiens, UniProt Q96RI1)
# T1 construct: made in house; host or cells: E. coli BL21(DE3), vector pDEST15
# T1 sequence (Q96RI1 187-472 isoform Q96RI1-2): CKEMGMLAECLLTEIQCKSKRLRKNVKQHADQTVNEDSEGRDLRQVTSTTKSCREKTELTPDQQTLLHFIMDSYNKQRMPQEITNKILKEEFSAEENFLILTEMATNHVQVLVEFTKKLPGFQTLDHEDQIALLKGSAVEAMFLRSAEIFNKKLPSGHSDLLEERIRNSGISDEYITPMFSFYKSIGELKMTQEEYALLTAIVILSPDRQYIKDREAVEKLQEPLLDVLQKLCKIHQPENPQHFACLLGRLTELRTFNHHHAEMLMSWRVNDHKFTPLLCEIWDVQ
# Test: FRET activity assay (ligand mediated cofactor peptide interaction, LANCE)
# Type: biochemical
# Conditions: GST-FXR-LBD / biotinylated SRC-1 peptide (676-700)
# Protocol: Determination of a ligand mediated cofactor peptide interaction to quantify ligand binding to the nuclear receptor Farnesoid X Receptor (FXR) was performed as follows:
# Preparation of human farnesoid X receptor (FXR) alpha ligand binding domain: The human FXRalpha ligand binding domain (LBD) was expressed in E. coli strain BL21(DE3) as an N-terminally glutathione-[…] (GST) tagged fusion protein. The DNA encoding the FXR ligand binding domain was cloned into vector pDEST15 (Invitrogen). Expression was under control of an IPTG inducible T7 promoter. The amino acid boundaries of the ligand binding domain were amino acids 187-472 of Database entry NM_005123 (RefSeq). Expression and purification of the FXR-LBD: An overnight preculture of a transformed E. coli strain was diluted 1:20 in LB-Ampicillin medium and grown at 30° C. to an optical density of OD600=0.4-0.6. Gene expression was then induced by addition of 0.5 mM IPTG. Cells were incubated an additional 6 h at 30° C., 180 rpm. Cells were collected by centrifugation (7000×g, 7 min, room temperature). Per liter of original cell culture, cells were resuspended in 10 ml lysis buffer (50 mM Glucose, 50 mM Tris pH 7.9, 1 mM EDTA and 4 mg/ml lysozyme) and left on ice for 30 min. Cells were then subjected to sonication and cell debris removed via centrifugation (22000×g, 30 min, 4° C.). Per 10 ml of supernatant 0.5 ml prewashed Glutathione 4B sepharose slurry (Qiagen) was added and the suspension kept slowly rotating for 1 h at 4° C. Glutathione 4B sepharose beads were pelleted by centrifugation (2000 g, 15 sec, 4° C.) and washed twice in wash buffer (25 mM Tris, 50 mM KCl, 4 mM MgCl2 and 1M NaCl). The pellet was resuspended in 3 ml elution buffer per liter of original culture (elution buffer: 20 mM Tris, 60 mM KCl, 5 mM MgCl2 and 80 mM glutathione added immediately prior to use as powder). The suspension was left rotating for 15 min at 4° C., the beads pelleted and eluted again with half the volume of elution buffer than the first time. The eluates were pooled and dialysed overnight in 20 mM Hepes buffer (pH 7.5) containing 60 mM KCl, 5 mM MgCl2 as well as 1 mM dithiothreitol and 10% (v/v) glycerol. The protein was analysed by SDS-Page.
# The method measures the ability of putative ligands to modulate the interaction between the purified bacterial expressed FXR ligand binding domain (LBD) and a synthetic biotinylated peptide based on residues 676-700 of SRC-1 (LCD2, 676-700). The sequence of the peptide used was B-[…]-COOH where the N-terminus was biotinylated (B). The ligand binding domain (LBD) of FXR was expressed as fusion protein with GST in BL-21 cells using the vector pDEST15. Cells were lysed by sonication, and the fusion proteins purified over glutathione sepharose (Pharmacia) according to the manufacturers instructions. For screening of compounds for their influence on the FXR-peptide interaction, the Perkin Elmer LANCE technology was applied. This method relies on the binding dependent energy transfer from a donor to an acceptor fluorophor attached to the binding partner of interest. For ease of handling and reduction of background from compound fluorescence LANCE technology makes use of generic fluorophore labels and time resolved detection Assays were done in a final volume of 2 5 μl in a 384 well plate, in a Tris-based buffer (20 mM Tris-HCl pH 7,5; 60 mM KCl, 5 mM MgCl2; 35 ng/μl BSA), containing 20-60 ng/well recombinantly expressed FXR-LBD fused to GST, 200-600 nM N-terminally biotinylated peptide, representing SRC1 aminoacids 676-700, 200 ng/well Streptavidin-xIAPC conjugate(Prozyme) and 6-10 ng/well Eu W1024 antiGST (Perkin Elmer). DMSO content of the samples was kept at 1%. After generation of the assay mix and diluting the potentially FXR modulating ligands, the assay was equilibrated for one hour in the dark at room temperature in FIA-plates black 384 well (Greiner). […]
row,SMILES,pIC50
1,"COc1nc(OCc2c(-c3c(Cl)cccc3Cl)noc2C(C)C)ccc1N(C)C(=O)c1ccc(C(=O)O)cc1 [Example 11, N-{6-[3-(2,6-dichloro-phenyl)-5-isopropyl-isoxazol-4-ylmethoxy]-2-methoxy-pyridin-3-yl}-N-methyl-terephthalamic acid]",5.00 to 6.00
2,"Cc1onc(-c2c(Cl)cccc2Cl)c1COc1ccc(NS(=O)(=O)c2cccc(C(=O)O)c2)cn1 [Example 17, 3-(N-(6-((3-(2,6-dichlorophenyl)-5-methylisoxazol-4-yl)methoxy)pyridin-3-yl)sulfamoyl)benzoic acid]",5.00 to 6.00
3,"COC(=O)c1ccc(C(=O)Nc2ccc(OCc3c(-c4c(Cl)cccc4Cl)noc3C(C)C)nc2C(F)(F)F)cc1 [Example 5, N-{6-[3-(2,6-dichloro-phenyl)-5-isopropyl-isoxazol-4-ylmethoxy]-2-trifluoromethyl-pyridin-3-yl}-terephthalamic acid methyl ester]",5.00 to 6.00
4,"Cc1onc(-c2c(Cl)cccc2Cl)c1COc1ccc(NS(=O)(=O)c2ccc(C(=O)O)cc2)cn1 [Example 18, 4-(N-(6-((3-(2,6-dichlorophenyl)-5-methylisoxazol-4-yl)methoxy)pyridin-3-yl)sulfamoyl)benzoic acid]",5.00 to 6.00
5,"CC(C)c1onc(-c2c(Cl)cccc2Cl)c1COc1ccc(NS(=O)(=O)c2ccc(C(=O)O)cc2)c(C(F)(F)F)n1 [Example 8, 4-{6-[3-(2,6-dichloro-phenyl)-5-isopropyl-isoxazol-4-ylmethoxy]-2-trifluoromethyl-pyridin-3-ylsulfamoyl}-benzoic acid]",5.00 to 6.00
6,"Cc1nc(OCc2c(-c3c(Cl)cccc3Cl)noc2C(C)C)ccc1N(C)C(=O)c1ccc(C(=O)O)cc1 [Example 2, 4-((6-((3-(2,6-Dichlorophenyl)-5-isopropylisoxazol-4-yl)methoxy)-2-methylpyridin-3-yl)(methyl)carbamoyl)benzoic acid]",≥ 6.00
7,"COc1nc(OCc2c(-c3c(Cl)cccc3Cl)noc2C(C)C)ccc1NS(=O)(=O)c1ccc(C(=O)O)cc1 [Example 12, 4-{6[3-(2,6-dichloro-phenyl)-5-isopropyl-isoxazol-4-ylmethoxy]-2-methoxy-pyridin-3-ylsulfamoyl}-benzoic acid]",≥ 6.00
8,Cc1cc(OCc2c(-c3c(Cl)cccc3Cl)noc2C(C)C)ncc1NC(=O)c1ccc(C(=O)O)cc1 [Example 14],≥ 6.00
9,"Cc1nc(OCc2c(-c3c(Cl)cccc3Cl)noc2C(C)C)ccc1NC(=O)c1ccc(C(=O)O)cc1 [Example 1, N-{6[3-(2,6-dichloro-phenyl)-5-isopropyl-isoxazol-4-ylmethoxy]-2-methyl-pyridin-3-yl}-terephthalamic acid]",≥ 6.00
10,"COc1nc(OCc2c(-c3c(Cl)cccc3Cl)noc2C(C)C)ccc1NC(=O)c1ccc(C(=O)O)cc1 [Example 10, N-{6-[3-(2,6-dichloro-phenyl)-5-isopropyl-isoxazol-4-ylmethoxy]-2-methoxy-pyridin-3-yl}-terephthalamic acid]",≥ 6.00
11,"Cc1onc(-c2c(Cl)cccc2Cl)c1COc1ccc(NC(=O)c2ccc(C(=O)O)cc2)cn1 [Example 16, 4-(6-((3-(2,6-dichlorophenyl)-5-methylisoxazol-4-yl)methoxy)pyridin-3-ylcarbamoyl)benzoic acid]",5.00 to 6.00
12,"COc1nc(OCc2c(-c3c(Cl)cccc3Cl)noc2C(C)C)ccc1N(C)S(=O)(=O)c1ccc(C(=O)O)cc1 [Example 13, 4-({6-[3-(2,6-dichloro-phenyl)-5-isopropyl-isoxazol-4-ylmethoxy]-2-methoxy-pyridin-3-yl}-methyl-sulfamoyl)-benzoic acid]",≥ 6.00
13,"CC(C)c1onc(-c2c(Cl)cccc2Cl)c1COc1ccc(N(C)S(=O)(=O)c2ccc(C(=O)O)cc2)c(C(F)(F)F)n1 [Example 9, 4({6-[3-(2,6-Dichloro-phenyl)-5-isopropyl-isoxazol-4-ylmethoxy]-2-trifluoromethyl-pyridin-3-yl}-methyl-sulfamoyl)-benzoic acid]",≥ 6.00

# Second part, the compound after the results:
row,pIC50,SMILES
1,≥ 6.00,"CC(C)c1onc(-c2c(Cl)cccc2Cl)c1COc1ccc(N(C)Cc2ccc(C(=O)NCC(O)CO)cc2)c(C(F)(F)F)n1 (stereo not drawn) [Example 35, 4-(((6-((3-(2,6-Dichlorophenyl)-5-isopropylisoxazol-4-yl)methoxy)-2-(trifluoromethyl)pyridin-3-yl)(methyl)amino)methyl)-N-(2,3-dihydroxypropyl)benzamide]"
2,≥ 6.00,"CC(C)c1onc(-c2c(Cl)cccc2Cl)c1COc1ccc(N(C)C(=O)c2cccc(C(=O)O)c2)c(C(F)(F)F)n1 [Example 22, 3-((6-((3-(2,6-Dichlorophenyl)-5-isopropylisoxazol-4-yl)methoxy)-2-(trifluoromethyl)pyridin-3-yl)(methyl)carbamoyl)benzoic acid]"
3,≥ 6.00,"CC(C)c1onc(-c2c(Cl)cccc2Cl)c1COc1ccc(N(C)Cc2ccc(C(=O)OCCO)cc2)c(C(F)(F)F)n1 [Example 33, 2-Hydroxyethyl 4-(((6-((3-(2,6-dichlorophenyl)-5-isopropylisoxazol-4-yl)methoxy)-2-(trifluoromethyl)pyridin-3-yl)(methyl)amino)methyl)benzoate]"
4,≥ 6.00,"CC(C)c1onc(-c2c(Cl)cccc2Cl)c1COc1cnc(N(C)Cc2ccc(C(=O)O)cc2)c(Cl)c1 [Example 31, 4-(((3-Chloro-5-((3-(2,6-dichlorophenyl)-5-isopropylisoxazol-4-yl)methoxy)pyridin-2-yl)(methyl)amino)methyl)benzoic acid]"
5,≥ 6.00,"CC(C)c1onc(-c2c(Cl)cccc2Cl)c1COc1ccc(N(C)Cc2ccc(C(=O)OCC(O)CO)cc2)c(C(F)(F)F)n1 (stereo not drawn) [Example 34, 2,3-Dihydroxypropyl 4-(((6-((3-(2,6-dichlorophenyl)-5-isopropylisoxazol-4-yl)methoxy)-2-(trifluoromethyl)pyridin-3-yl)(methyl)amino)methyl)benzoate]"
6,5.00 to 6.00,"COC(=O)c1cccc(C(=O)Nc2ccc(OCc3c(-c4c(Cl)cccc4Cl)noc3C(C)C)nc2C(F)(F)F)c1 [Example 20, N-(6-[3-(2,6-Dichloro-phenyl)-5-isopropyl-isoxazol-4-ylmethoxy]-2-trifluoromethyl-pyridin-3-yl)-isophthalamic acid methyl ester]"
7,≥ 6.00,"CC(C)c1onc(-c2c(Cl)cccc2Cl)c1COc1ccc(N(C)Cc2ccc(C(=O)NCCO)cc2)c(C(F)(F)F)n1 [Example 36, 4-(((6-((3-(2,6-Dichlorophenyl)-5-isopropylisoxazol-4-yl)methoxy)-2-(trifluoromethyl)pyridin-3-yl)(methyl)amino)methyl)-N-(2-hydroxyethyl)benzamide]"
8,≥ 6.00,"CC(C)c1onc(-c2c(Cl)cccc2Cl)c1COc1ccc(N(C)Cc2ccc(C(=O)NCCN(C)C)cc2)c(C(F)(F)F)n1 [Example 37, 4-(((6-((3-(2,6-Dichlorophenyl)-5-isopropylisoxazol-4-yl)methoxy)-2-(trifluoromethyl)pyridin-3-yl)(methyl)amino)methyl)-N-(2-(dimethylamino)ethyl)benzamide]"

# — patent US20100184809A1, “Heterocyclic FXR Binding Compounds” (PHENEX PHARMACEUTICALS AG, priority 2006, published 2010)
